Measured values taken from patent US20230355605A1, “DRUG FOR ENHANCING FIBRINOLYTIC SYSTEM, AND USE THEREFOR” (priority 2020, published 2023).

Assays:
[1] = design: species or system human; conditions: in vivo, po
Experimental: A placebo-controlled single oral dose study was performed to examine the safety and pharmacokinetics upon single oral dose administration of the present compound in healthy Japanese adult males (subjects).
The oral dosages were 30 mg (step 1), 60 mg (step 2), 120 mg (step 3), and 240 mg (step 5) per day, and the food effect was separately examined in administration at a dosage of 60 mg (step 4) (a total of five steps). In steps 1 to 3 and 5, the number of subjects per step was 8 (6 subjects in the present compound administration group and 2 subjects in the placebo group), of which 1 subject of the present compound administration group and 1 subject of the placebo group were used as the preceding group, and 5 subjects of the present compound administration group and 1 subject of the placebo group were used as the following group. The study proceeds to the following group after confirming safety in the preceding group. The transition from one step to the next was made after confirming safety. In step 4, which examines the food effect, the present compound was orally administered to all 6 subjects. […]
After administration of the present compound and the placebo, the following items were evaluated in each subject. […]

[2] = tested on: Salmonella typhimurium TA100, TA1535, TA98, TA1537 and Escherichia coli WP2uvrA; assay: Mutagenicity study using bacteria (pre-incubation method); type: cell-based; conditions: five strains; metabolic activation method and direct method
Experimental: The gene mutagenicity by the present compound was examined using bacteria.
A study was conducted in the presence of a metabolic activator (hereinafter referred to as a “metabolic activation method”) and in the absence of a metabolic activator (hereinafter referred to as a “direct method”) by a pre-incubation method, using three strains, i.e., Salmonella typhimurium TA100 and TA1535, and Escherichia coli WP2uvrA, to detect base pair substitution gene mutations, and two strains, i.e., Salmonella typhimurium TA98 and TA1537, to detect frameshift gene mutations.

BCR-ABL^IS = assay: Phase II long-term administration study with TKI in chronic-phase CML: efficacy against CML; type: in vivo, human; conditions: for Cumulative number of patients who achieved a DMR / Cumulative rate of patients who achieved a DMR: with TKI
Experimental: Further, the efficacy of the combined use of the present compound and the TKI against CML was evaluated.
The present compound was orally administered after breakfast to chronic-phase CML patients (33 patients) aged 20 or older and younger than 80 who had been treated orally with the TKI for 1 year or more. The dosage of the present compound was started at 150 mg/day. […] No patients dropped out or were withdrawn from the study, and all of the patients were included in analysis (SAS analysis, FAS analysis, and PPS analysis).
The efficacy against CML was evaluated from the following two points: • (1) cumulative achievement rate of CML patients who reached a DMR (BCR-ABL^IS: 0.0032% or less) • (2) change in BCR-ABL^IS
Within 28 days before the start of administration of the present compound, and 4, 8, 12, 24, 36, and 48 weeks after the start of administration of the present compound or at discontinuation, the investigator collected peripheral blood and conducted a test using a BCR-ABL^IS quantitative PCR kit (produced by Sysmex Corporation) to obtain results (IS%, ABL copy number, and BCR-ABL copy number).

CHL/IU cells = assay: Chromosomal abnormality study; type: cell-based, Chinese hamster; conditions: with and without S9 mix
Experimental: A study on the clastogenic property of the present compound was performed in the presence of a drug metabolism-activating enzyme (S9 mix) (hereinafter referred to as a “metabolic activation method”) and in the absence of a drug metabolism-activating enzyme (S9 mix) (hereinafter referred to as a “direct method”) using mammalian cultured cells (Chinese hamster cultured cells (CHL/IU cells)).

human-derived PAI-1 = human-derived PAI-1 (Homo sapiens, UniProt P05121); assay: Human plasma clot fibrinolysis test (PAI-1 inhibitory effect); type: biochemical; conditions: human plasma clot with t-PA and human-derived PAI-1
Experimental: A human plasma clot fibrinolysis test was performed to evaluate the PAI-1 inhibitory effect of the present compound.
Specifically, human-derived PAI-1 and the present compound were added to a reaction mixture containing t-PA, which dissolves blood clots caused by addition of thrombin to normal human pooled plasma, and the inhibition of the effect of t-PA by PAI-1 (PAI-1 effect) and the removal of the PAI-1 effect by the present compound (PAI-1 inhibition) (fibrinolysis enhancement) were evaluated.

[3] = type: physicochemical
Experimental: The present compound (yellowish white powder) was prepared in the following shipping packaging form and then subjected to an accelerated stability study (40° C., 75% RH, 6 months).
Inner package: A double polyethylene bag (100 × 200 mm) was filled with the present compound and sealed with a zip tie. Outer package: The double polyethylene bag filled with the present compound was placed in a fiber drum, and the fiber drum was sealed.
The present compound was stored in the above packaging form under the conditions of 40° C.12° C. and 75% RH15% RH for 6 months. At points after 1 month, 3 months, and 6 months, appearance observation, an identification test (ultraviolet spectrum, infrared absorption spectrum, flame reaction), water content analysis (water absorption), analysis of the content of the present compound, and a purity test (impurity profile) were performed to evaluate the stability of the present compound.

Sequence of human-derived PAI-1 (P05121 24-402): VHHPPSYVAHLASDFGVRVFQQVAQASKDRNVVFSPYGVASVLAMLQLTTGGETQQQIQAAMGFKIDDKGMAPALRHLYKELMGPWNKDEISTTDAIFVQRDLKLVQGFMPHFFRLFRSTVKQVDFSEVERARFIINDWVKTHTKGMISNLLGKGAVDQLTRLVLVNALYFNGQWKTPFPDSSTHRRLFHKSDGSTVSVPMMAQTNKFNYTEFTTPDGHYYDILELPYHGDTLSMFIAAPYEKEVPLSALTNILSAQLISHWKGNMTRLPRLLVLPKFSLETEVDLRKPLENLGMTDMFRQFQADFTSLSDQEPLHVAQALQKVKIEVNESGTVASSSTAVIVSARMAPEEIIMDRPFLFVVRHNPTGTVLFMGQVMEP

O=C(Nc1ccc(Cl)cc1C(=O)[O-])c1cccc(-c2cccc3cccnc23)c1.[Na+] [present compound, sodium 5-chloro-2-({ [3-(quinolin-8-yl)phenyl]carbonyl}amino)benzoate]
AUC versus dosage [1]: linearity
mutagenesis effect [2]: no mutagenesis effect
Cumulative number of patients who achieved a DMR (BCR-ABL^IS; 4 weeks after the start of administration, 33 patients): 5
Cumulative rate of patients who achieved a DMR (BCR-ABL^IS; 4 weeks after the start of administration): 15.2%
Cumulative number of patients who achieved a DMR (BCR-ABL^IS; 8 weeks after the start of administration, 33 patients): 9
Cumulative rate of patients who achieved a DMR (BCR-ABL^IS; 8 weeks after the start of administration): 27.3%
Cumulative number of patients who achieved a DMR (BCR-ABL^IS; 12 weeks after the start of administration, 33 patients): 9
Cumulative rate of patients who achieved a DMR (BCR-ABL^IS; 12 weeks after the start of administration): 27.3%
change in BCR-ABL^IS vs baseline (BCR-ABL^IS; 15 patients, 150 mg/day continuous, weeks 12 and 24): significant decrease
change in BCR-ABL^IS vs baseline (BCR-ABL^IS; 18 patients, 150 mg/day to 180 mg/day increase, week 48): significant decrease
Cumulative number of patients who achieved a DMR (BCR-ABL^IS; 24 weeks after the start of administration, 33 patients): 10
Cumulative rate of patients who achieved a DMR (BCR-ABL^IS; 24 weeks after the start of administration): 30.3%
change in BCR-ABL^IS vs baseline (BCR-ABL^IS; 33 patients, from week 12 onward, Wilcoxon test): significant decrease
Cumulative number of patients who achieved a DMR (BCR-ABL^IS; 36 weeks after the start of administration, 33 patients): 11
Cumulative rate of patients who achieved a DMR (BCR-ABL^IS; 36 weeks after the start of administration): 33.3%
Cumulative number of patients who achieved a DMR (BCR-ABL^IS; 48 weeks after the start of administration, 33 patients): 11
Cumulative rate of patients who achieved a DMR (BCR-ABL^IS; 48 weeks after the start of administration): 33.3%
cumulative DMR achievement rate (BCR-ABL^IS; from week 36 onward, 150 to 180 mg/day with TKI): 33.3%
patients who achieved a DMR (BCR-ABL^IS; of the 33 patients, 150 to 180 mg/day with TKI): 11 patients
BCR-ABL^IS level (mean ± standard deviation) (BCR-ABL^IS; week 4, 33 patients, P = 0.1222): 0.0134±0.01301%
BCR-ABL^IS level (mean ± standard deviation) (BCR-ABL^IS; week 8, 33 patients, P = 0.0929): 0.0129±0.01569%
BCR-ABL^IS level (mean ± standard deviation) (BCR-ABL^IS; week 12, 33 patients, P = 0.0228): 0.0133±0.02012%
BCR-ABL^IS level (mean ± standard deviation) (BCR-ABL^IS; week 24, 33 patients, P = 0.0427): 0.0149±0.02596%
BCR-ABL^IS level (mean ± standard deviation) (BCR-ABL^IS; week 36, 33 patients, P = 0.0304): 0.0152±0.03427%
BCR-ABL^IS level (mean ± standard deviation) (BCR-ABL^IS; week 48, 33 patients, P = 0.0124): 0.0210±0.06718%
clastogenic effect (CHL/IU cells): no clastogenic effect
concentration with PAI-1 inhibitory effect (fibrinolysis enhancement effect) (human-derived PAI-1): ≥ 10 µM
period stable in the accelerated stability study ([3]; 6 months): at least 6 months
change from the state before storage (appearance, identification, water content, content, purity) ([3]; 40° C., 75% RH, after 1, 3 and 6 months, shipping packaging): no change
